Assay: HPLC radiometabolite analysis of arterial plasma after [^18F]DPA-714 injection
Format: in vivo
Conditions: rat arterial plasma, mean ± SD

CCN(CC)C(=O)Cc1c(-c2ccc(OCC[18F])cc2)nn2c(C)cc(C)nc12 [[^18F]DPA-714, N,N-diethyl-2-(2-(4-(2-(^18F)-fluoroethoxy)phenyl)-5,7-dimethylpyrazolo[1,5-a]pyrimidin-3-yl)acetamide]
% [^18F]DPA-714 (parent) in plasma (P.I. time 12 (min), N=7): 68 ± 7.4% | % [^18F]DPA-714 (parent) in plasma (P.I. time 30 (min), N=7): 44 ± 8.9% | % [^18F]DPA-714 (parent) in plasma (P.I. time 60 (min), N=7): 27 ± 6.2% | % [^18F]DPA-714 (parent) in plasma (P.I. time 90 (min), N=5): 22 ± 17.8%

From article PMC3391587 (Journal of Nuclear Medicine, 2012)
